The results in this text go back to patent US20030064954A1, “Cationic amphiphilic 1,4-dihydropyridine derivatives useful for delivery of nucleotide containing compounds” (priority 2000, published 2003).

Molecules are shown by their SMILES.

For data set [1], the system named is CV-1P (African monkey green kidney fibroblasts cells). Put plainly: In vitro transfection of plasmid DNA, β-galactosidase activity per well. It is filed as cell-based. The following applies: CVI-P; for transfection, result in words: entry spans the charge ratios 8-0.5. In a few lines: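 CV-1P cells (20 000/well) given compound/DNA complexes at various charge ratios, prepared in 50 mM MES–50 mM HEPES–75 mM NaCl pH 7.2, 0.6 μg DNA/well, for 5 h at 37 °C, then 45 h in growth medium. Lysates assayed for β-galactosidase via oNPG hydrolysis at 405 nm against an E. coli enzyme standard; efficiency expressed as percent of Lipofectin.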

The subject of the next data set is plasmid DNA. Nature of the data set: DNA condensation/complexation, EtBr displacement assay. It is filed as binding. In a few lines:
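Plasmid DNA (0.6 μg/well) was mixed with 0.002% EtBr in 20 mM HEPES–150 mM NaCl pH 7.4, then cationic liposomes were added at various +/− charge ratios.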

The next data set relates to CVI-P cells. Put plainly: Cytotoxicity of amphiphile/DNA complexes, percentage of survived cells. The following applies: for cell viable: 'at +/−', charge ratio not given.
[2] abbreviates: amphiphile/DNA +/− charge ratio 0.5.
[3] abbreviates: amphiphile/DNA +/− charge ratio 1.
Where [4] appears, read: amphiphile/DNA +/− charge ratio 2.
The mark [5] stands for this setting: amphiphile/DNA +/− charge ratio 4.
Setting [6] is: amphiphile/DNA +/− charge ratio 8.

What is called melting point is the temperature of the solid-liquid transition. With `Br.CCCCCCCCCCCCCCCC[n+]1cccc(C2C(C(=O)OC(C)CC)=C(C)NC(C)=C2C(=O)OC(C)CC)c1.[Br-]` (stereo not drawn), the melting point was 159 to 165 °C.

For `CCCCOC(=O)C1=C(C)NC(C)=C(C(=O)OCCCC)C1c1ccc[n+](C)c1.I.[I-]` [Example 2a, 3′,5′-Bis(butoxycarbonyl)-1′,4′-dihydro-1,2′,6′-trimethyl-3,4′-bipyridinium iodide], the melting point lay within 161 to 164 °C.

`CC1=C(C(=O)OC(C)(C)C)C(c2ccc[n+](C)c2)C(C(=O)OC(C)(C)C)=C(C)N1.I.[I-]` [Example 2c, 3′,5′-Bis[(1,1-dimethylethoxy)carbonyl]-1′,4′-dihydro-1,2′,6′-trimethyl-3,4′-bipyridinium iodide] gave a melting point of 166 to 169 °C.

Take `CC1=C(C(=O)OC2CC3CCC2(C)C3(C)C)C(c2cc[n+](C)cc2)C(C(=O)OC2CC3CCC2(C)C3(C)C)=C(C)N1.I.[I-]` (stereo not drawn) [Example 2u, 3′,5′-Bis(bornyloxycarbonyl)-1′,4′-dihydro-1,2′,6′-trimethyl-4,4′-bipyridinium iodide]: the melting point is 270 °C (dec.).

With `CCOC(=O)C1=C(C)NC(C)=C(C(=O)OCC)C1c1cccc[n+]1C.I.[I-]` [Example 2v, 3′,5′-Bis(ethoxycarbonyl)-1′,4′-dihydro-1,2′,6′-trimethyl-2,4′-bipyridinium iodide], the melting point fell in the range of 197 to 199 °C.

`CCCCCCC[n+]1cccc(C2C(C(=O)OCC)=C(C)NC(C)=C2C(=O)OCC)c1.I.[I-]` [Example 5a, 3′,5′-Bis(ethoxycarbonyl)-1-heptyl-1′,4′-dihydro-2′,6′-dimethyl-3,4′-bipyridinium iodide] returned a melting point of 165 to 167 °C.

Consider `CCCCCCCCCCCCCCCC(=O)OCCCOC(=O)C1=C(C)NC(C)=C(C(=O)OCCCOC(=O)CCCCCCCCCCCCCCC)C1c1ccc[n+](C)c1.I.[I-]` [III, 1′,4′-Dihydro-1,2′,6′-trimethyl-3′,5′-bis[(3-palmitoyloxypropoxy)carbonyl]-3,4′-bipyridinium iodide], for which the melting point lay in the range of 143 to 146 °C. Also, the “transfection, result in words” value in data set [1] is “No signal”. For the same compound, the “complexation, percentage of the maximum fluorescence signal when EtBr bound to DNA in the absence of an amphiphile” value with plasmid DNA (setting [2]) is listed as 93,2%. For the same compound, in the data set with plasmid DNA (setting [3]), the “complexation, percentage of the maximum fluorescence signal when EtBr bound to DNA in the absence of an amphiphile” value was 83,2%. Further, the “complexation, percentage of the maximum fluorescence signal when EtBr bound to DNA in the absence of an amphiphile” value in the data set with plasmid DNA (setting [4]) is listed as 76,7%. The “complexation, percentage of the maximum fluorescence signal when EtBr bound to DNA in the absence of an amphiphile” value in the data set on plasmid DNA (setting [5]) is on record as 74,6%. Besides, the “complexation, percentage of the maximum fluorescence signal when EtBr bound to DNA in the absence of an amphiphile” value with plasmid DNA (setting [6]) is on record as 74,7%. For the same compound, in the data set with CVI-P cells (setting [2]), the “cytotoxicity as a percentage of survived cells” value (“cytotoxicity as a percentage” below) is 87,86%. In the data set with CVI-P cells (setting [3]), the “cytotoxicity as a percentage” value is reported as 81,86%. The “cytotoxicity as a percentage” value in the data set on CVI-P cells (setting [4]) was 72,04%. The “cytotoxicity as a percentage” value in the data set on CVI-P cells (setting [5]) was 54,84%. Also, the “cytotoxicity as a percentage” value in the data set with CVI-P cells (setting [6]) is 68,47%.

Consider `CCCOCCOC(=O)C1=C(C)NC(C)=C(C(=O)OCCOCCC)C1c1ccc[n+](C)c1.I.[I-]` [VIII, 1′,4′-Dihydro-1,2′,6′-trimethyl-3′,5′-bis[(2-propoxyethoxy)-carbonyl]-3,4′-bipyridinium iodide], for which the melting point fell in the range of 59 to 61 °C.

Compound `CC1=C(C(=O)OC2CC(C)CCC2C(C)C)C(c2ccc[n+](C)c2)C(C(=O)OC2CC(C)CCC2C(C)C)=C(C)N1.I.[I-]` (stereo not drawn) [X, 1′,4′-Dihydro-3′,5′-bis(menthyloxycarbonyl)-1,2′,6′-trimethyl-3,4′-bipyridinium iodide] gave a melting point of 156 to 159 °C. Besides, the “transfection, result in words” value in data set [1] is reported as “No signal”. For the same compound, the cell viable with CVI-P cells was 50%.

Compound `CC1=C(C(=O)OC2CC3CCC2(C)C3(C)C)C(c2ccc[n+](C)c2)C(C(=O)OC2CC3CCC2(C)C3(C)C)=C(C)N1.I.[I-]` (stereo not drawn) [XI, 3′,5′-Bis(bornyloxycarbonyl)-1′,4′-dihydro-1,2′,6′-trimethyl-3,4′-bipyridinium iodide] came in with a melting point of 271 to 274 °C. Moreover, the “transfection, result in words” value in data set [1] is “No signal”. Besides, the cell viable in the data set with CVI-P cells worked out at 50%.

For `Br.CCCCCCCCC[n+]1cccc(C2C(C(=O)OCC)=C(C)NC(C)=C2C(=O)OCC)c1.[Br-]` [XIII, 3′,5′-Bis(ethoxycarbonyl)-1′,4′-dihydro-2′,6′-dimethyl-1-nonyl-3,4′-bipyridinium bromide], the melting point is 142 to 143 °C (dec.). Further, the “transfection, result in words” value in data set [1] is “No signal”.

As for `Br.CCCCCCCCCCCCCCOC(=O)C1=C(C)NC(C)=C(C(=O)OCCCCCCCCCCCCCC)C1c1ccc[n+](CCCCCCCCC)c1.[Br-]` [XIV, 1′,4′-Dihydro-2′,6′-dimethyl-1-nonyl-3′,5′-bis(tetradecyloxycarbonyl)-3,4′-bipyridinium bromide], the melting point is 124 to 126 °C (dec.). In addition, in data set [1] (setting [2]), the transfection efficiency is 0,75 β-galactosidase units per well. Besides, the transfection efficiency in data set [1] (setting [3]) is given as 3,38 β-galactosidase units per well. Moreover, the transfection efficiency in data set [1] (setting [4]) is on record as 1,5 β-galactosidase units per well. Also, the “complexation, percentage of the maximum fluorescence signal when EtBr bound to DNA in the absence of an amphiphile” value in the data set with plasmid DNA (setting [2]) turned out to be 100%. In addition, in the data set on plasmid DNA (setting [3]), the “complexation, percentage of the maximum fluorescence signal when EtBr bound to DNA in the absence of an amphiphile” value is on record as 96,2%. The “complexation, percentage of the maximum fluorescence signal when EtBr bound to DNA in the absence of an amphiphile” value with plasmid DNA (setting [4]) is given as 91,03%. Moreover, in the data set on plasmid DNA (setting [5]), the “complexation, percentage of the maximum fluorescence signal when EtBr bound to DNA in the absence of an amphiphile” value is 88,9%. For the same compound, the “complexation, percentage of the maximum fluorescence signal when EtBr bound to DNA in the absence of an amphiphile” value with plasmid DNA (setting [6]) was 93,7%. Also, the “cytotoxicity as a percentage” value with CVI-P cells (setting [2]) was 103,98%. Also, the “cytotoxicity as a percentage” value in the data set on CVI-P cells (setting [3]) is on record as 93,16%. The “cytotoxicity as a percentage” value with CVI-P cells (setting [4]) is listed as 51,04%. Moreover, the “cytotoxicity as a percentage” value in the data set on CVI-P cells (setting [5]) is given as 34,5%. Also, the “cytotoxicity as a percentage” value in the data set with CVI-P cells (setting [6]) is listed as 44,62%.

`Br.CCCCCCCCCCCCCCCC[n+]1cccc(C2C(C(=O)OCC)=C(C)NC(C)=C2C(=O)OCC)c1.[Br-]` [XV, 3′,5′-Bis (ethoxycarbonyl)-1-hexadecyl-1′,4′-dihydro-2′,6′-dimethyl-3,4′-bipyridinium bromide] registered a melting point of 135 to 136 °C. Besides, the “transfection, result in words” value in data set [1] was “No signal”.

Compound `Br.CCCCCCCCCCCCCCCC[n+]1cccc(C2C(C(=O)OCCOCCC)=C(C)NC(C)=C2C(=O)OCCOCCC)c1.[Br-]` [XVI, 1-Hexadecyl-1′,4′-dihydro-2′,6′-dimethyl-3′,5′-bis[(2-propoxyethoxy)carbonyl]-3,4′-bipyridinium bromide] displayed a melting point of 93 to 96 °C. The “transfection, result in words” value in data set [1] was “No signal”. For the same compound, in the data set with CVI-P cells, the cell viable is listed as 50%.

The compound `Br.CCCCCCCCCCCCCCCC[n+]1cccc(C2C(C(=O)OCCCCCCCCCCCCCC)=C(C)NC(C)=C2C(=O)OCCCCCCCCCCCCCC)c1.[Br-]` [XVII, 1-Hexadecyl-1′,4′-dihydro-2′,6′-dimethyl-3′,5′-bis(tetradecyloxycarbonyl)-3,4′-bipyridinium bromide] registered a melting point of 133 to 135 °C. In data set [1], the “transfection, result in words” value is reported as “No signal”. In addition, the “complexation, percentage of the maximum fluorescence signal when EtBr bound to DNA in the absence of an amphiphile” value in the data set with plasmid DNA (setting [2]) is 104,4%. Besides, the “complexation, percentage of the maximum fluorescence signal when EtBr bound to DNA in the absence of an amphiphile” value with plasmid DNA (setting [3]) is recorded as 97,9%. Moreover, the “complexation, percentage of the maximum fluorescence signal when EtBr bound to DNA in the absence of an amphiphile” value with plasmid DNA (setting [4]) was 95,1%. In the data set on plasmid DNA (setting [5]), the “complexation, percentage of the maximum fluorescence signal when EtBr bound to DNA in the absence of an amphiphile” value is 97%. Further, the “complexation, percentage of the maximum fluorescence signal when EtBr bound to DNA in the absence of an amphiphile” value with plasmid DNA (setting [6]) is listed as 96,5%. Also, the “cytotoxicity as a percentage” value with CVI-P cells (setting [2]) is 105,14%. Also, the “cytotoxicity as a percentage” value in the data set on CVI-P cells (setting [3]) was 85,31%. In addition, the “cytotoxicity as a percentage” value in the data set on CVI-P cells (setting [4]) is on record as 88,20%. In addition, the “cytotoxicity as a percentage” value in the data set on CVI-P cells (setting [5]) is 67,45%. Further, in the data set on CVI-P cells (setting [6]), the “cytotoxicity as a percentage” value was 97,34%.

For the compound `Br.CCCCCCCCCCCCCCCC[n+]1cccc(C2C(C(=O)OC3CC(C)CCC3C(C)C)=C(C)NC(C)=C2C(=O)OC2CC(C)CCC2C(C)C)c1.[Br-]` (stereo not drawn) [XVIII, 1-Hexadecyl-1′,4′-dihydro-3′,5′-bis(menthyloxycarbonyl)-2′,6′-dimethyl-3,4′-bipyridinium bromide], the melting point was in the range of 115 to 117 °C. Also, the “complexation, percentage of the maximum fluorescence signal when EtBr bound to DNA in the absence of an amphiphile” value in the data set on plasmid DNA (setting [2]) is listed as 97,5%. In addition, the “complexation, percentage of the maximum fluorescence signal when EtBr bound to DNA in the absence of an amphiphile” value in the data set with plasmid DNA (setting [3]) is 90,8%. The “complexation, percentage of the maximum fluorescence signal when EtBr bound to DNA in the absence of an amphiphile” value in the data set with plasmid DNA (setting [4]) was 82,6%. Further, the “complexation, percentage of the maximum fluorescence signal when EtBr bound to DNA in the absence of an amphiphile” value in the data set with plasmid DNA (setting [5]) is given as 78,5%. The “complexation, percentage of the maximum fluorescence signal when EtBr bound to DNA in the absence of an amphiphile” value with plasmid DNA (setting [6]) is listed as 79,6%. Further, the “cytotoxicity as a percentage” value with CVI-P cells (setting [2]) is 85,15%. Besides, the “cytotoxicity as a percentage” value in the data set on CVI-P cells (setting [3]) is 83,94%. In the data set on CVI-P cells (setting [4]), the “cytotoxicity as a percentage” value is listed as 76,51%. Further, the “cytotoxicity as a percentage” value in the data set with CVI-P cells (setting [5]) is 9,08%. The “cytotoxicity as a percentage” value with CVI-P cells (setting [6]) was 3,05%.
